The source made the active and inactive calls. No cut-off for these calls is given here.
Legend:
[1] = Drug level in plasma of NPM-ALK expressing human SUP-M2 cells xenografted mouse at 30 mg/kg, po administered as single dose measured at 24 hrs by LC-MS/MS analysis; format: ADME, organism-based
[2] = AUC (0 to infinity) in cynomolgus monkey at 10 mg/kg, po by LC/MS/MS analysis; format: ADME, organism-based, Macaca fascicularis; set-up: dose 10 mg/kg, route oral, time infinity; conditions: in vivo
[3] = AUC (0 to infinity) in Sprague-Dawley rat at 1 mg/kg, iv by LC/MS/MS analysis; format: ADME, organism-based; set-up: dose 1 mg/kg, time infinity, route intravenous; conditions: in vivo
[4] = Clearance in cynomolgus monkey at 1 mg/kg, iv by LC/MS/MS analysis; format: ADME, organism-based, Macaca fascicularis; conditions: in vivo
[5] = Antitumor activity against human HCC827 cells expressing activated FAK xenografted in SCID-Beige mouse assessed as incidence of partial tumor regression at 55 mg/kg, po bid administered for 28 days; format: functional
[6] = Half life in Sprague-Dawley rat at 1 mg/kg, iv by LC/MS/MS analysis; format: ADME, organism-based; conditions: in vivo
[7] = Half life in cynomolgus monkey at 1 mg/kg, iv by LC/MS/MS analysis; format: ADME, organism-based, Macaca fascicularis; conditions: in vivo
[8] = Drug level in tumor of NPM-ALK expressing human SUP-M2 cells xenografted mouse at 30 mg/kg, po administered as single dose measured at 24 hrs by LC-MS/MS analysis; format: ADME, organism-based, Neoplasm; conditions: read-out: Drug uptake
[9] = Cmax in Sprague-Dawley rat at 5 mg/kg, po by LC/MS/MS analysis; format: ADME, organism-based; set-up: dose 5 mg/kg, route oral; conditions: in vivo
Cytochrome P450 2D6 = Cytochrome P450 2D6 (Homo sapiens, UniProt P10635); assay: Inhibition of CYP2D6 in human liver microsomes using dextromethorphan as substrate in presence of NADPH by LC/MS/MS analysis; format: ADME
[10] = Antitumor activity against human CTG-0142 cells expressing activated FAK xenografted in mouse assessed as tumor growth inhibition at 55 mg/kg, po bid administered for 28 days measured during compound dosing; format: functional; conditions: CTG-0142, po, 672 h, read-out: TGI
[11] = Clearance in CD-1 mouse at 1 mg/kg, iv by LC/MS/MS analysis; format: ADME, organism-based; conditions: in vivo
[12] = Drug level in tumor of FAK expressing human CWR22 cells xenografted Nu/Nu mouse at 55 mg/kg, po administered as single dose measured at 24 hrs by LC-MS/MS analysis; format: ADME, organism-based, Neoplasm; conditions: read-out: Drug uptake
Cytochrome P450 1A2 = target: T1, Cytochrome P450 1A2 (Homo sapiens, UniProt P05177); assay: Inhibition of CYP1A2 in human liver microsomes using phenacetin as substrate in presence of NADPH by LC/MS/MS analysis; format: ADME
T1 sequence (P05177 whole entry): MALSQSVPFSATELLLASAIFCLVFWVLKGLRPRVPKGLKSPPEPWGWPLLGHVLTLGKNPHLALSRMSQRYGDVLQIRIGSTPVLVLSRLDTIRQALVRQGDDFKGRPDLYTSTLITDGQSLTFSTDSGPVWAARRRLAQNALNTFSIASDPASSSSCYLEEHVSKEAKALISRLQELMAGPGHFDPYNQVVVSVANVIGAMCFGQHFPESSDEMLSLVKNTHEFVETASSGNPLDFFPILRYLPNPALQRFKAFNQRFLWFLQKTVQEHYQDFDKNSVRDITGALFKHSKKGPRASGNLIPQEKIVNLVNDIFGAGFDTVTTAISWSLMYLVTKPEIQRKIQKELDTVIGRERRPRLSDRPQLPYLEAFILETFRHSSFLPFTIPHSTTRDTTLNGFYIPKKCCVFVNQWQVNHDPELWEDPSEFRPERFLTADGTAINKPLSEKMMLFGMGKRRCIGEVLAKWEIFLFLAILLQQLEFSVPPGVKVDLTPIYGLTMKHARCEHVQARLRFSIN

[13] = (§1) Cytotoxicity against human NCI-H2228 cells expressing EML4-ALK assessed as cell growth inhibition; format: functional, cell-based
NCI-H2228 = assay: as §1; format: functional, cell-based
SUP-M2 = assay: Antitumor activity against human SUP-M2 cells expressing NPM-ALK xenografted in po dosed SCID-Beige mouse assessed as reduction in tumor volume administered twice daily for 12 days measured during compound dosing; format: functional, organism-based
Cytochrome P450 2C9 = Cytochrome P450 2C9 (Homo sapiens, UniProt P11712); assay: Inhibition of CYP2C9 in human liver microsomes using diclofenac as substrate in presence of NADPH by LC/MS/MS analysis; format: ADME
[14] = Volume of distribution in Sprague-Dawley rat at 1 mg/kg, iv by LC/MS/MS analysis; format: ADME, organism-based; conditions: in vivo
[15] = Cmax in CD-1 mouse at 10 mg/kg, po by LC/MS/MS analysis; format: ADME, organism-based; set-up: dose 10 mg/kg, route oral; conditions: in vivo
[16] = Drug level in tumor of FAK expressing human CWR22 cells xenografted Nu/Nu mouse at 55 mg/kg, po administered as single dose measured at 12 hrs by LC-MS/MS analysis; format: ADME, organism-based, Neoplasm; conditions: read-out: Drug uptake
[17] = Binding affinity to partial length human ALK 1151Tins mutant expressed in mammalian system by KINOMEscan assay
[18] = Oral bioavailability in Sprague-Dawley rat at 5 mg/kg by LC/MS/MS analysis; format: ADME, organism-based; conditions: in vivo
[19] = Half life in cynomolgus monkey liver microsomes by LC/MS/MS analysis; format: ADME, Macaca fascicularis
KARPAS-299 = assay: Induction of apoptosis assessed as caspase 3/7 activation in human KARPAS299 expressing NPM-ALK; format: functional
Mus musculus [20] = assay: Inhibition of NPM-ALK phosphorylation in human SUP-M2 cells xenografted in mouse at 30 mg/kg, po administered as single dose measured upto 12 hrs; format: functional, organism-based
[21] = Tmax in Sprague-Dawley rat at 5 mg/kg, po by LC/MS/MS analysis; format: ADME, organism-based; conditions: in vivo
[22] = AUC (0 to infinity) in CD-1 mouse at 10 mg/kg, po by LC/MS/MS analysis; format: ADME, organism-based; set-up: dose 10 mg/kg, time infinity, route oral; conditions: in vivo
[23] = Cmax in Sprague-Dawley rat brain at 30 mg/kg, po by LC/MS/MS analysis; format: ADME, organism-based; set-up: dose 30 mg/kg, route oral
[24] = Clearance in Sprague-Dawley rat at 1 mg/kg, iv by LC/MS/MS analysis; format: ADME, organism-based; conditions: in vivo
[25] = Drug level in tumor of FAK expressing human CWR22 cells xenografted Nu/Nu mouse at 55 mg/kg, po administered as single dose measured at 6 hrs by LC-MS/MS analysis; format: ADME, organism-based, Neoplasm; conditions: read-out: Drug uptake
[26] = Tmax in CD-1 mouse at 10 mg/kg, po by LC/MS/MS analysis; format: ADME, organism-based; conditions: in vivo
[27] = Half life in rat liver microsomes by LC/MS/MS analysis; format: ADME
[28] = Drug level in tumor of NPM-ALK expressing human SUP-M2 cells xenografted mouse at 30 mg/kg, po administered as single dose measured at 2 hrs by LC-MS/MS analysis; format: ADME, organism-based, Neoplasm; conditions: read-out: Drug uptake
[29] = AUC (0 to infinity) in cynomolgus monkey at 1 mg/kg, iv by LC/MS/MS analysis; format: ADME, organism-based, Macaca fascicularis; set-up: dose 1 mg/kg, route intravenous, time infinity; conditions: in vivo
Mus musculus [30] = assay: Toxicity in SCID-Beige mouse xenografted with human HCC827 cells expressing activated FAK assessed as overt toxicity at 30 to 55 mg/kg, po bid administered for 28 days; format: organism-based; conditions: in vivo, 672 h

Chain of Cytochrome P450 2C9 (P11712 whole entry): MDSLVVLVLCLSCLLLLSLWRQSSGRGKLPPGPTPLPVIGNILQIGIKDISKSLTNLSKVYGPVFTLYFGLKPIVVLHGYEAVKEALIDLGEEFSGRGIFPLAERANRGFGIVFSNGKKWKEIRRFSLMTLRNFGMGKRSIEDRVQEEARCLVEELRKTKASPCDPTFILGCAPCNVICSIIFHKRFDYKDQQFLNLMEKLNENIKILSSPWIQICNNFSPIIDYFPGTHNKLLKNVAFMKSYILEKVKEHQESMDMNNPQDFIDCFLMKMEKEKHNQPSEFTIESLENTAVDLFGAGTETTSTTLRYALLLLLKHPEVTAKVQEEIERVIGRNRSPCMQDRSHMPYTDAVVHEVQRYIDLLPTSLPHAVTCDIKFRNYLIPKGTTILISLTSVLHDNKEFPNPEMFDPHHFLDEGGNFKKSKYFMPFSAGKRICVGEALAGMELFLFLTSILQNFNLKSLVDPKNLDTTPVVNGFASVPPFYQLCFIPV
Chain of Cytochrome P450 2D6 (P10635 whole entry): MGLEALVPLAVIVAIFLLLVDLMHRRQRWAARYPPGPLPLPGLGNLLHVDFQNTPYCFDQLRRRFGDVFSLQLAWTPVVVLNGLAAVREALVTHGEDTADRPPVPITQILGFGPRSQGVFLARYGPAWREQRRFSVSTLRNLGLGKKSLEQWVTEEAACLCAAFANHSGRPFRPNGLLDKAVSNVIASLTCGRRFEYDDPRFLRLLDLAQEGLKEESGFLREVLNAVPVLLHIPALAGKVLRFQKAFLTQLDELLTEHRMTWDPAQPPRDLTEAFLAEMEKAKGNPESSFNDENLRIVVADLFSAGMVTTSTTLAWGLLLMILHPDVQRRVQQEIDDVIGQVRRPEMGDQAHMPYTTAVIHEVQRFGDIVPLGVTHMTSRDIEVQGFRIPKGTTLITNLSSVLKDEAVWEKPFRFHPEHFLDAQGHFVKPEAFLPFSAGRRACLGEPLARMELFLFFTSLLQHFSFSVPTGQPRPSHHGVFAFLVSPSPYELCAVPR

Compound `CNC(=O)c1ccccc1Nc1nc(Nc2ccc3c(c2OC)CCC[C@H](N2CCN(CCO)CC2)C3)ncc1Cl` [CEP-37440] has a concentration at 24 h [1] of 1160 ng/mL, an AUC(0-inf) [2] of 2760 ng·h/mL and an AUC(0-inf) [3] of 4000 ng·h/mL. For the same compound, the clearance [4] was 30 mL/min/kg, the Activity [5] was 60% and the half-life [6] was 2 h. It also gave a half-life [7] of 5.4 h, a concentration at 24 h [8] of 8200 ng/g and a Cmax [9] of 1340 ng/mL. It also gave an IC50 (Cytochrome P450 2D6) of over 5600 nM, an inhibition in vivo at 55 mg/kg [10] of 75% and a clearance [11] of 10 mL/min/kg. The concentration at 24 h [12] was 8680 ng/g, the IC50 (Cytochrome P450 1A2) was over 5600 nM and the IC50 [13] was 2900 nM. The “growth inhibition (GI)” value (NCI-H2228) was “Dose-dependent effect”, the Activity (SUP-M2) was “Dose-dependent effect” and the IC50 (Cytochrome P450 2C9) was over 5600 nM. The Vd [14] was 0.8 L/kg, the Cmax [15] was 1530 ng/mL and the concentration at 12 h [16] was 3810 ng/g. For the same compound, the Kd [17] was 2.6 nM, the bioavailability [18] was 42% and the half-life [19] was 0.35 h. The Activity (KARPAS-299) was “Active”, the inhibition (Mus musculus [20]) was “Active” and the Tmax [21] was 3.3 h. It also gave an AUC(0-inf) [22] of 16400 ng·h/mL, a Cmax [23] of 3160 ng/g and a clearance [24] of 3 to 4 mL/min/kg. It also gave a concentration at 6 h [25] of 8680 ng/g, a Tmax [26] of 2 h and a half-life [27] of 0.667 h. The concentration at 2 h [28] was 6040 ng/g, the AUC(0-inf) [29] was 554 ng·h/mL and the Activity (Mus musculus [30]) was “Non-Toxic”.
